# Results from EP0073711A1, “Salts of 2-oxopentane-1,5-dicarboxylic acid, their preparation and pharmaceutical preparations containing these salts” (S.A. D[…] LEBAS (Société Anonyme), priority 1981, dated 1983).
# How the values were obtained:
# [1] = Solubility in water at 20°C; format: physicochemical; conditions: lithium salt
# [2] = Tests on the acid lithium salt (pharmacological and therapeutic properties); conditions: compared with the calcium salt
# rats = test: 30-day daily treatment toxicity; format: in vivo; conditions: daily treatment 30 days, doses up to 1g par kg et par jour
# From the text: Un groupe de rats a été soumis à un traitement quotidien par le sel acide de calcium de l'acide 2-oxo-1,5- pentane dioique pendant une durée de 30 jours.
# [3] = test system: système nerveux central de la souris; test: Antagonism of the muscle-relaxant action of chlorpromazine (CPZ); format: in vivo
# From the text: (§1) Activité du sel acide de calcium de l'acide 2-oxo-1,5- pentane dioîque sur le système nerveux central de la souris.
# 2. Antagonisme de l'action myorelaxante de la Chlorpromazine (CPZ)
# La chlorpromazine induit une myorelaxation chez la souris. On constate une réduction de 37,5% pour une dose de 1g par kg et une réduction de 62,5% pour une dose de 2g par kg.
# [4] = test system: système nerveux central de la souris; test: Reduction of reserpine ptosis; format: in vivo; conditions: souris, 0,5g par kg à 1g par kg per os, 1 hour after administration
# From the text: as §1
# 1. Réduction du ptosis réserpinique
# [5] = test system: système nerveux central de la souris; test: Hole-board test; format: in vivo
# From the text: as §1
# 6. Test de la planche à trous
# Sur une planche percée de trous, la souris, parcourant la surface, explore les divers trous rencontrés.
# [6] = test system: système nerveux central de la souris; test: Motor activity; format: in vivo
# From the text: as §1
# Ce test a montré que l'adminitration à des souris du sel conforme à l'invention, provoque une augmentation de leur activité motrice.
# [7] = test system: système nerveux central de la souris; test: Rotarod test (rotating cylinder) after chlorpromazine; format: in vivo; conditions: from the dose of 0,5g par kg
# From the text: as §1
# 3. Test du "rotarod" (cylindre tournant)
# Dans ce test, la souris tourne sur un cylindre animé d'un mouvement rotatif, perd l'équilibre et tombe après administration de chlorpromazine (CPZ).
# [8] = test system: système nerveux central de la souris; test: Reduction of barbiturate narcosis; format: in vivo
# From the text: as §1
# 4. Réduction de la narcose barbiturique
# Les résultats de ce test se sont avérés positifs, chez la souris.
# [9] = Pharmacokinetic study with C14-labelled salt; format: in vivo; conditions: rats, C14-labelled molecule
# From the text: Dans cette étude, on a administré à des rats le sel conforme à l'invention dont la molécule a été marquée au C^14 radioactif.
# [10] = test system: système nerveux central de la souris; test: Catalepsy (prochlorpémazine-induced catatonia); format: in vivo; conditions: catalepsy test
# From the text: as §1
# Ce test a montré que le sel conforme à l'invention s'oppose à l'activité catatonique de la prochlorpémazine.
# patients = test: Clinical study: memory disorders, neurotic (anxiophobic) and psychasthenic states, versus placebo; format: in vivo, homme; conditions: sixty patients, 4g daily in two doses versus placebo
# From the text: 2. Correction des troubles de la mémoire, des états névrotiques (anxiophobiques), et des états psychasténiques
# patient = test: Clinical test: corrective effects on hypoxia (chamber, 12,5% O2); format: in vivo, homme; conditions: acute dose 12g per os, hypoxia at 12,5% O2
# From the text: 1. Effets correctifs du sel acide de calcium de l'acide 2-oxo 1,5-pentane dioïgue sur l'hypoxie
# Le test est réalisé sur le patient après le passage de celui-ci en caisson sous une hypoxie à 12,5% d'O2.
# [11] = test system: système nerveux central de la souris; test: Reduction of reserpine hypothermia; format: in vivo; conditions: doses between 0,5 and 1g par kg per os
# From the text: as §1
# 5. Réduction de l'hypothermie réserpinique
Substance,solubilité dans l'eau à 20°C [1],propriétés pharmacologiques et thérapeutiques [2],"anomalie dans les constantes biologiques, hématologiques et les examens histologiques de différents viscères (rats)",réduction (myorelaxation induite par la chlorpromazine) ([3]; dose 1g par kg),réduction (myorelaxation induite par la chlorpromazine) ([3]; dose 2g par kg),ptosis réserpinique [4],"exploration (planche à trous) sous méprobamate ([5]; after a single treatment, méprobamate-induced decrease of exploration)","activité exploratrice (planche à trous) ([5]; after three days of pretreatment, versus control animals)",activité motrice [6],antagonisme du CPZ (rotarod) [7],réduction de la narcose barbiturique [8],passage à travers la barrière hématoencéphalique [9],principal métabolite d'élimination [9],conversion au niveau cérébral ([9]; in the brain),activité catatonique de la prochlorpémazine [10],"efficacité à l'égard des troubles de la mémoire, états névrotiques (anxiophobiques) et états psychasténiques (patients)",effet correctif sur l'hypoxie (patient),réduction de l'hypothermie réserpinique [11]
"sel acide de lithium de l'acide 2-oxo-1,5- pentane dioïque [sel de lithium acide]","5,5 % en poids",comparables à celles du sel de calcium,,,,,,,,,,,,,,,,
"sel de calcium acide de l'acide 2-oxo-1,5- pentane dioïque",,,Aucune anomalie,"37,5%","62,5%",réduit de façon significative,inhibition de la diminution d'exploration,augmentation notable,augmentation,antagonisme du CPZ,positifs,passage de la molécule à travers la barrière hématoencéphalique,acide glutamique,conversion de celle-ci en acide gamma-aminobutyrique (GABA),s'oppose,excellente efficacité,activateur efficace capable de contrebalancer l'effet d'une hypoxie,résultats positifs
